Data reported in patent US20060100140A1, “Combination of a) n-{5-[4-(4-methyl-piperazino-methyl)-benzoylamido]2-methylphenyl}-4- (3-pyridyl)-2-pyrimidine-amine and b) a histone deacetylase inhibitor for the treatment of leukemia” (priority 2002, published 2006).

What was measured:
Format in all cases: cell-based, human
[1] = tested on: LAMA 84 cells; assay: Apoptosis by cytospin slides
Protocol: Experimental Format: Logarithmically growing cells are placed in sterile plastic T-flasks (Corning, Corning, N.Y.) to which are added the designated drugs and the flasks replaced in the incubator for intervals. At the end of the incubation period, cells are transferred to sterile centrifuge tubes, pelleted by centrifugation at 400×g for 10 min at room temperature, and prepared for analysis as described below.
(§1) Assessment of Apoptosis: After drug exposures, cytocentrifuge preparations are stained with Wright-Giemsa and viewed by light microscopy to evaluate the extent of apoptosis (i.e., cell shrinkage, nuclear condensation, formation of apoptotic bodies, etc.) as described previously (Yu et al., Nat. Rev. Cancer 1:294-202). For these studies, the percentage of apoptotic cells is determined by evaluating ≧500 cells/condition in triplicate. To confirm the results of morphological analysis, Annexin V/PI staining is used. Annexin V/PI (BD PharMingen, San Diego, Calif.) analysis of cell death is carried out as per the manufacturer's instructions. In studies involving TNF and TNF soluble receptor, both compound are combined and maintained at room temperature 20 min prior to use. For these experiments 1-2×10^5 cells per condition are harvested. Analysis is carried out using a Becton-Dickinson FACScan cytofluorometer (Mansfield, Mass.). To further confirm the morphology results, TUNEL staining is used. For TUNEL staining, cytocentrifuge preparations are obtained and fixed with 4% formaldehyde. The slides are treated with acetic acid/ethanol (1:2), stained with terminal transferase reaction mixture containing 1× terminal transferase reaction buffer (0.25 units/μl terminal transferase, 2.5 mM CoCl2, and 2 pmol fluorescein-12-dUTM; Boehringer Mannheim, Indianapolis, Ind.), and visualized using fluorescence microscopy.

[2] = tested on: LAMA 84 cells; assay: Annexin V/PI flow cytometry of cell death; conditions: 200 nM Compound I ± 1.0 μM SAHA for 24 hr
Protocol: as §1, with “For” for “Assessment of Apoptosis: After drug exposures, cytocentrifuge preparations are stained with Wright-Giemsa and viewed by light microscopy to evaluate the extent of apoptosis (i.e., cell shrinkage, nuclear condensation, formation of apoptotic bodies, etc.) as described previously (Yu et al., Nat. Rev. Cancer 1:294-202). For”

[3] = tested on: K562 cells; assay: Clonogenic survival in soft agar; conditions: 2.0 μM SAHA ± 250 nM Compound I for 24 hr, washed, 12-day incubation
Protocol: Analysis of erythroid maturation of K562 cells is performed by monitoring the production of hemoglobin as previously described (Yang et al., J. Biol. Chem. 2001, 276:25742-52). Clonogenic Survival: Effects of drug treatment on the clonogenic survival of leukemia cells is determined using a previously described clonogenic assay (Yu et al., Mol. Pharmacol. 2001, 60: 143-54).

| Compound | Compound I + SB % of apoptotic cells ([1]; Table 6, LAMA 84, 24 hr, sodium butyrate (SB; 1 or 2 mM), Compound I concentration not given) [%] | cell death ([1]; sensitive LAMA 84, Compound I (1.0 or 1.25 μM) for 48 hr, data not shown) [%] | % Annexin V/PI [2] [%] | Clonogenic survival (% control) [3] [% control] |
| --- | --- | --- | --- | --- |
| Cc1ccc(NC(=O)c2ccc(CN3CCN(C)CC3)cc2)cc1Nc1nccc(-c2cccnc2)n1 [Compound I, N-{5-[4-(4-methyl-piperazino-methyl)-benzoylamido]-2-methylphenyl}-4-(3-pyridyl)-2-pyrimidine-amine] | 9.3 ± 3.8 | ~100 | – | – |
| O=C(CCCCCCC(=O)Nc1ccccc1)NO [SAHA, suberoylanilide hydroxamic acid] | – | – | 15.2 ± 2.4 | 21.8 ± 3.6 |
